The record followed here is patent publication US10316017B2, “COT modulators and methods of use thereof” (Gilead Sciences, Inc., priority 2015, dated 2019).

The subject of test [1] is TNFα production in LPS-stimulated human monocytes. The experiment in a line: Cot Monocyte TNFα Cell Based Assay. The conditions noted are these: Homo sapiens, Monocyte, read-out: EC50 TNF. The method, boiled down: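 Cells at 5,000/well were pretreated with compound for 1 h at 37 °C (0.5% DMSO final), then stimulated with 50 pg/ml LPS for 4 h at 37 °C. Supernatant TNFα was measured by two-antibody TR-FRET after overnight room-temperature incubation; values are percent of control between unstimulated and stimulated wells.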

Test [2] addresses T1, human Cot catalytic domain (30-397 amino acids) (Homo sapiens, UniProt P41279).
T1 construct: Purified recombinant human Cot catalytic domain (30-397 amino acids) was purchased from Cama Biosciences; purchased Cama Biosciences (so in the source)
The experiment in a line: High Throughput Cot Biochemical Assay (KinEASE TR-FRET). The conditions noted are these: read-out: IC50 HTRF. In short, it runs like this: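 Reaction of 5 nM recombinant human Cot catalytic domain (aa 30-397) with 1 μM STK3 peptide (XL665-labeled) and 400 μM ATP in 10 mM MOPS pH 7.0, 10 mM MgOAc, 1 mM DTT, 0.5 mg/mL BSA, 0.1% DMSO. Phosphopeptide detected by TR-FRET with europium anti-phospho antibody.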

[3] abbreviates: TNFα in LPS-stimulated human monocytes.
Setting [4] is: Cot KinEASE TR-FRET (HTRF) biochemical assay, 400 μM ATP.
The mark [5] stands for this setting: Cot biochemical HTRF (KinEASE TR-FRET) assay.
Where [6] appears, read: Cot KinEASE TR-FRET, 400 μM ATP.
The mark [7] stands for this setting: LPS-stimulated human monocytes, TNFα TR-FRET.

Molecules are shown by their SMILES. Where two headings read alike, the source gives them in different places. A value given as a limit tells only on which side of the number the result lay.

T1 sequence (P41279 30-397): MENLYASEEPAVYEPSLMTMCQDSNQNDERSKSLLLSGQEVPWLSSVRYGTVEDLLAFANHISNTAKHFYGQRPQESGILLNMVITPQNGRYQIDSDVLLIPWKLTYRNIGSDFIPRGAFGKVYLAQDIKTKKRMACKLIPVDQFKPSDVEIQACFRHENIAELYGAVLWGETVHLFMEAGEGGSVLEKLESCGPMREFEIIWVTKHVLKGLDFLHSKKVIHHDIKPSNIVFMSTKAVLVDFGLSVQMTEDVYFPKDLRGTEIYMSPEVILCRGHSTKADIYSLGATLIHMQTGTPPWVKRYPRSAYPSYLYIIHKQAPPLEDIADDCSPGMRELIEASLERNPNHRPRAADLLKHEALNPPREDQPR

Consider `[2H]C(Nc1cc(Cl)c2ncc(C#N)c(NCC(C)(C)C)c2c1)(c1ccc(F)cc1)c1nnnn1C` (centres unmarked) [Example 184, 8-chloro-6-(((4-fluorophenyl)(1-methyl-1H-tetrazol-5-yl)methyl-d)amino)-4-(neopentylamino) quinoline-3-carbonitrile], for which, in test [1] (setting [3]), the EC50 was found to be 4380 nM. In addition, the half-inhibitory concentration (IC50) in test [2] (setting [4]) was determined as 154 nM.
On to `CC(C)n1cc([C@@H](Nc2cc(Cl)c3ncc(C#N)c(NCCCN(C)C)c3c2)c2ccccc2)nn1` [Example 542, (S)-8-chloro-4-((3-(dimethylamino)propyl)amino)-6-(((1-isopropyl-1H-1,2,3-triazol-4-yl)(phenyl)methyl)amino) quinoline-3-carbonitrile], for which the EC50 in test [1] (setting [3]) is greater than 10000 nM. The IC50 in test [2] (setting [5]) is greater than 10000 nM.
With `Cc1cc(Nc2c(C#N)cnc3c(Cl)cc(N[C@@H](c4ccc(F)cc4)c4c[nH]nn4)cc23)cnc1F` [Example 375, (S)-8-chloro-4-((6-fluoro-5-methylpyridin-3-yl)amino)-6-(((4-fluorophenyl)(1H-1,2,3-triazol-4-yl)methyl)amino) quinoline-3-carbonitrile], the EC50 in test [1] (setting [3]) turned out to be 1260 nM. Further, the IC50 in test [2] (setting [4]) worked out at 48 nM.
With `[2H][C@](Nc1cc(C#N)c2ncc(C#N)c(NCC(C)(C)C)c2c1)(c1ccc(F)cc1)c1cn(CCC2CN2C(C)(C)C)nn1` (stereo partly drawn) [Example 993, 6-(((1S)-(1-(2-(1-(tert-butyl)aziridin-2-yl)ethyl)-1H-1,2,3-triazol-4-yl)(4-fluorophenyl)methyl-d)amino)-4-(neopentylamino) quinoline-3,8-dicarbonitrile], the EC50 in test [1] was found to be 3610 nM. Further, the IC50 in test [2] (setting [6]) amounted to 32 nM.
On to `CC(C)(C)N1CCC(n2cc([C@@H](Nc3cc(Cl)c4ncc(C#N)c(Nc5ccc(F)c(F)c5F)c4c3)c3ccc(Cl)cc3)nn2)CC1` [Example 650, (S)-6-(((1-(1-(tert-butyl)piperidin-4-yl)-1H-1,2,3-triazol-4-yl)(4-chlorophenyl)methyl)amino)-8-chloro-4-((2,3,4-trifluorophenyl)amino)quinoline-3-carbonitrile], for which the EC50 in test [1] (setting [3]) turned out to be 661 nM. In addition, the concentration for half-maximal inhibition (IC50) in test [2] (setting [5]) came out at 32 nM.
`[2H]C(Nc1cc(Cl)c2ncc(C#N)c(N[C@H](CCN3CCOCC3)c3ccccc3)c2c1)(c1ccc(F)cc1)c1cn(C2CC2)nn1` (some centres unmarked) [Compound 34]: the EC50 in test [1] (setting [3]) was determined as 192 nM. In test [2] (setting [4]), the IC50 was determined as 13 nM.
As for `N#Cc1cnc2c(Cl)cc(N[C@@H](c3ccccc3)c3c[nH]nn3)cc2c1Nc1ccc(Cl)c(Cl)c1F` [Example 644, (S)-8-chloro-4-((3,4-dichloro-2-fluorophenyl)amino)-6-((phenyl(1H-1,2,3-triazol-4-yl)methyl)amino)quinoline-3-carbonitrile], in test [1] (setting [3]), the EC50 was 1100 nM. For the same molecule, the IC50 in test [2] (setting [5]) is 132 nM.
Turning to `CC(C)(C)CNc1c(C#N)cnc2c(Cl)cc(N[C@H](c3cn(C4CC4)nn3)c3ccccc3OC(F)(F)F)cc12` [Example 122, (S)-8-chloro-6-(((1-cyclopropyl-1H-1,2,3-triazol-4-yl)(2-(trifluoromethoxy)phenyl)methyl)amino)-4-(neopentylamino) quinoline-3-carbonitrile], the EC50 in test [1] (setting [3]) came to 201 nM. In test [2] (setting [4]), the IC50 was determined as 19 nM.
In the case of `CN1CC(n2cc([C@@H](Nc3cc(Cl)c4ncc(C#N)c(Nc5ccc(F)c(Cl)c5)c4c3)c3ccccc3)nn2)CC(F)(F)C1` (stereo partly drawn) [Example 736, 8-chloro-4-((3-chloro-4-fluorophenyl)amino)-6-(((1S)-(1-(5,5-difluoro-1-methylpiperidin-3-yl)-1H-1,2,3-triazol-4-yl)(phenyl)methyl)amino) quinoline-3-carbonitrile], in test [1] (setting [3]), the EC50 stood at 376 nM. The IC50 in test [2] (setting [5]) is 41 nM.
With `[2H][C@](Nc1cc(Cl)c2ncc(C#N)c(NCC3(C(F)(F)F)CC3)c2c1)(c1ccc(F)cc1)c1cn(C2CC2)nn1` [Example 176], the EC50 in test [1] (setting [3]) stood at 809 nM. In test [2] (setting [4]), the IC50 turned out to be 83 nM.
As to `Cc1c(F)cccc1[C@H](Nc1cc(Cl)c2ncc(C#N)c(NCC(C)(C)C)c2c1)c1cn(C2(C(F)(F)F)CC2)nn1` [Example 1090, (S)-8-chloro-6-(((3-fluoro-2-methylphenyl)(1-(1-(trifluoromethyl)cyclopropyl)-1H-1,2,3-triazol-4-yl)methyl)amino)-4-(neopentylamino)quinoline-3-carbonitrile], the EC50 in test [1] (setting [7]) is 614 nM. Further, the IC50 in test [2] (setting [6]) amounted to 75 nM.
With `[2H][C@](Nc1cc(Cl)c2ncc(C#N)c(Nc3cnc(F)c(F)c3)c2c1)(c1ccc(F)cc1)c1cn(Cc2ccccc2)nn1` [Example 342, (S)-6-(((1-benzyl-1H-1,2,3-triazol-4-yl)(4-fluorophenyl)methyl-d)amino)-8-chloro-4-((5,6-difluoropyridin-3-yl)amino)quinoline-3-carbonitrile], the EC50 in test [1] (setting [3]) amounted to 1230 nM. For the same molecule, the IC50 in test [2] (setting [4]) amounted to 64 nM.
For `CC(C)(C)CNc1c(C#N)cnc2c(Cl)cc(N[C@@H](c3ccc(F)cc3)c3cn(C4(C(N)=O)CC4)nn3)cc12` [Example 996, (S)-1-(4-(((8-chloro-3-cyano-4-(neopentylamino)quinolin-6-yl)amino)(4-fluorophenyl)methyl)-1H-1,2,3-triazol-1-yl)cyclopropane-1-carboxamide], the EC50 in test [1] (setting [7]) came to 109 nM. Also, the IC50 in test [2] (setting [6]) was 6 nM.
Consider `N#Cc1cnc2c(Cl)cc(N[C@@H](c3ccccc3)c3cn(C4CC4)nn3)cc2c1N[C@@H](c1ccccc1)C(F)(F)CO` [Example 986, 8-chloro-6-(((S)-(1-cyclopropyl-1H-1,2,3-triazol-4-yl)(phenyl)methyl)amino)-4-(((S)-2,2-difluoro-3-hydroxy-1-phenylpropyl)amino)quinoline-3-carbonitrile], for which the EC50 in test [1] (setting [7]) came out at 222 nM. The IC50 in test [2] (setting [6]) is 13 nM.
As to `CN(C)c1cccc([C@H](Nc2cc(Cl)c3ncc(C#N)c(Nc4ccc(F)c(Cl)c4)c3c2)c2cn(C3CCN(C(C)(C)C)CC3)nn2)c1` [Example 595, (S)-6-(((1-(1-(tert-butyl)piperidin-4-yl)-1H-1,2,3-triazol-4-yl)(3-(dimethylamino)phenyl)methyl)amino)-8-chloro-4-((3-chloro-4-fluorophenyl)amino)quinoline-3-carbonitrile], in test [1] (setting [3]), the EC50 came to 305 nM. For the same molecule, in test [2] (setting [5]), the IC50 amounted to 8 nM.
Take `CC(C)(C)CNc1c(C#N)cnc2c(Cl)cc(N[C@@H](c3cccc(C4(C#N)CC4)c3)c3cn(C45CC(C4)C5)nn3)cc12` [Example 1094, (S)-6-(((1-(bicyclo[1.1.1]pentan-1-yl)-1H-1,2,3-triazol-4-yl)(3-(1-cyanocyclopropyl)phenyl)methyl)amino)-8-chloro-4-(neopentylamino)quinoline-3-carbonitrile]: the EC50 in test [1] (setting [7]) came to 407 nM. In test [2] (setting [6]), the IC50 was determined as 10 nM.
For `[2H][C@](Nc1cc(Cl)c2ncc(C#N)c(NCC(C)(C)C)c2c1)(c1cn(C(C)(C)C)nn1)c1ccccc1Cl` [Example 109, 6-(((1-(tert-butyl)-1H-1,2,3-triazol-4-yl) (2-chlorophenyl)methyl-d)amino)-8-chloro-4-(neopentylamino) quinoline-3-carbonitrile], the EC50 in test [1] (setting [3]) was determined as 210 nM. Also, the IC50 in test [2] (setting [4]) is 17 nM.
On to `CC(C)(C)CNc1c(C#N)cnc2c(Cl)cc(N[C@@H](c3ccc(F)cc3)c3cn(C4(c5cccnc5)CC4)nn3)cc12` [Example 997, (S)-8-chloro-6-(((4-fluorophenyl)(1-(1-(pyridin-3-yl)cyclopropyl)-1H-1,2,3-triazol-4-yl)methyl)amino)-4-(neopentylamino) quinoline-3-carbonitrile], for which the EC50 in test [1] (setting [7]) is 61 nM. In test [2] (setting [6]), the IC50 stood at 48 nM.
In the case of `N#Cc1cnc2c(Cl)cc(N[C@@H](c3ccc(F)cc3)c3c[nH]nn3)cc2c1Nc1ccc(F)nc1` [Example 374, (S)-8-chloro-6-(((4-fluorophenyl)(1H-1,2,3-triazol-4-yl)methyl)amino)-4-((6-fluoropyridin-3-yl)amino)quinoline-3-carbonitrile], in test [1] (setting [3]), the EC50 turned out to be 3840 nM. Besides, in test [2] (setting [4]), the IC50 turned out to be 161 nM.
Take `CC(C)(C)CNc1c(C#N)cnc2c(C#N)cc(N[C@H](c3cn(C4(C(F)F)CC4)nn3)c3cccc(C#N)c3Cl)cc12` [Example 1080, (S)-6-(((2-chloro-3-cyanophenyl)(1-(1-(difluoromethyl)cyclopropyl)-1H-1,2,3-triazol-4-yl)methyl)amino)-4-(neopentylamino)quinoline-3,8-dicarbonitrile]: the EC50 in test [1] (setting [7]) worked out at 148 nM. Besides, the IC50 in test [2] (setting [6]) was determined as 7 nM.
`[2H][C@](Nc1cc(Cl)c2ncc(C#N)c(N[C@H](CO)C(C)(C)C)c2c1)(c1ccc(F)cc1)c1cn(C2CC2)nn1` [Example 187, 8-chloro-6-(((S)-(1-cyclopropyl-1H-1,2,3-triazol-4-yl)(4-fluorophenyl)methyl-d)amino)-4-(((S)-1-hydroxy-3,3-dimethylbutan-2-yl)amino)quinoline-3-carbonitrile]: the EC50 in test [1] (setting [3]) was 793 nM. Further, in test [2] (setting [4]), the IC50 was determined as 85 nM.
The corresponding values for `[2H][C@](Nc1cc(Cl)c2ncc(C#N)c(NC3CC3)c2c1)(c1ccc(F)cc1)c1cn(C2CC2)nn1` [Example 220, (S)-8-chloro-6-(((1-cyclopropyl-1H-1,2,3-triazol-4-yl)(4-fluorophenyl)methyl-d)amino)-4-(cyclopropylamino)quinoline-3-carbonitrile] are 1620 nM and 296 nM.
